Measurements as given in patent US6841361B1, “Methods of producing recombinant insulin from novel fused proteins” (Itoham Foods Inc., priority 1999, dated 2005).

Experiment: Plasma glucose level after subcutaneous injection of insulin in rabbits
Assay type: in vivo, Japanese Wister rabbit
Conditions: rabbit, 0.5 ml of 1 unit/ml
Procedure: For each insulin sample, an aliquot was taken from the fractions so that the insulin contents for both kinds of insulin calculated based on the main peak areas became same, and then dried.
The resulting solution (0.5 ml) was subcutaneously injected to the back of a Japanese Wister rabbit (Kbs:JW, […]). After the injection, blood was collected from the anterior auricular vein of the rabbit over a period of time. Each blood sample (0.45 ml) was added with a mix of glycolysis-inhibiting agents (NaF: 12.5 mg/ml, heparin-Na: 125 units/ml, EDTA-2Na: 48 mg/ml) ([…]]) and fully mixed. The mixed solution was centrifuged at 3,000 rpm for 15 min. at 5° C., and the supernatant was used as a plasma sample. For each plasma sample, the plasma glucose level was determined using a biochemical automated analyzer (CIBA-CORNING; Express PLUS), and the plasma insulin level was determined using EIA kit (Wako Pure Chemical Industries, Ltd.).

Novolin: a commercially available insulin, Novolin 40, (Novo Nordisk Pharma); insulin fractions re-purified by HPLC before testing
time course of the plasma glucose level after the injection of insulin (subcutaneous injection to the back, FIG. 9): showed the decrease in plasma glucose level | plasma glucose level compared with ITOHAM insulin (subcutaneous, relative to ITOHAM insulin): slight lower plasma glucose level
